Source: patent US20090023714A1, “COMBINED PREPARATION OF A THIAZIDE DIURETIC AND A LOOP DIURETIC” (HEXAL AG, priority 2005, published 2009)
“Also recorded” adds a separate entry of the source.

Assays:
healthy volunteers [1] = experiment: Diuretic effects on urinary excretion of Na+, K+, Mg2+ and Ca2+ in healthy volunteers (monotherapy and combinations); type: in vivo, human; conditions: for Na+ excretion during the first 3 hrs, monotherapy: 10 mg TORA, 25 mg HCT, 50 mg TA; for total K+ excretion, monotherapy: usual doses, 0-24 hrs and sub-periods, FIG. 2b
Experimental: (§1) The ethically approved trial was performed on 12 healthy volunteers (28-48years in age, 6 males, 6 females), who had given their written informed consent to the study. Prior to administration of a drug, the participants underwent a clinical check-up. The participants were kept on a standard diet, receiving a defined fluid (1.5 l/day) and salt intake (6 g NaCl; 100 mmol Na^+/day) three days before and throughout the study.
From that point of time, urine was collected following drug administration in 2 hour intervals until the 6th hour and then from the 6th to 9th hour, from the 9th to 12th hour and from the 12th to […]. An aliquot of the defined volume of the respective collection period was frozen until analyzed for Na^+, K^+, Cl^−, Ca^2+ Mg^2+ and creatinine using a “MODULAR” Analyzer (Roche Comp., Switzerland).
(§2) All data are expressed as mean values (±SEM). The diuretic-induced “net excretion” is defined as the difference between total excretion and control excretion (“baseline”) obtained for the respective period prior to treatment. The effect of diuretic monotherapy is compared with the combined treatment using ANOVA.

healthy volunteers [2] = experiment: Dose-response studies of natriuretic effect in healthy volunteers; type: in vivo, human; conditions: for range of linear dose-responsiveness of natriuretic effect / dose at which the maximum natriuretic effect is reached: FIG. 1; for duration of action (time until baseline excretion is reached again): oral single dose; for dose at which the maximum natriuretic effect is reached: net Na+ excretion for the duration of action, oral
Experimental: as §1
In accordance with earlier studies (35), urine was collected before the treatment period, i.e., from 24 hrs to 12 hrs and from 12 hrs to 0 hrs prior to oral drug administration (8 a.m.). From that point of time, urine was collected following drug administration in 2 hour intervals until the 6th hour and then from the 6th to 9th hour, from the 9th to 12th hour and from the 12th to […]. An aliquot of the defined volume of the respective collection period was frozen until analyzed for Na^+, K^+, Cl^−, Ca^2+ Mg^2+ and creatinine using a “MODULAR” Analyzer (Roche Comp., Switzerland).
as §2

Mg2+ excretion, monotherapy (healthy volunteers [1]; loop diuretic versus thiazide, FIG. 3) | SMILES | Na+ excretion during the 6-12 hrs and 12-24 hrs periods (rebound) (healthy volunteers [1]; 10 mg TORA monotherapy, FIG. 2a) | Na+ excretion during the first 3 hrs, monotherapy (healthy volunteers [1]; FIG. 2a) | K+/Na+ excretion ratio 6-24 hrs, monotherapy (healthy volunteers [1]; after the duration of action, Na+ excretion below baseline, FIG. 2c) | Ca2+ excretion in relation to Na+ excretion, monotherapy (healthy volunteers [1]; loop diuretic versus thiazide, FIG. 2d) | range of linear dose-responsiveness of natriuretic effect (healthy volunteers [2]) | duration of action (time until baseline excretion is reached again) (healthy volunteers [2]) [h] | total K+ excretion, monotherapy (healthy volunteers [1]) | dose at which the maximum natriuretic effect is reached (healthy volunteers [2]) [mg] | K+ excretion correlated with Na+ excretion (K+/Na+ ratio), 0-12 hrs (healthy volunteers [1]; 0-12 hrs, HCT alone versus HCT with 5 mg TORA, p<0.01) | K+ excretion correlated with Na+ excretion (K+/Na+ ratio), 0-24 hrs (healthy volunteers [1]; 0-24 hrs, HCT alone versus HCT with 5 mg TORA, p<0.01) | K+/Na+ excretion ratio within the first three hours, monotherapy (healthy volunteers [1]; FIG. 2c) | cumulative Na+ excretion induced by 25 mg compared with 50 mg (healthy volunteers [2]; during 12 hrs (time until baseline excretion is reached again))
less magnesiuretic than the thiazide | Cc1cccc(Nc2ccncc2S(=O)(=O)NC(=O)NC(C)C)c1 [TORA, torasemide] | dropped below levels prior to drug administration | by far in the highest increase of Na excretion | highest only after the duration of action of the loop diuretic | higher for the loop diuretic than for the thiazide | broader range of linear dose-responsiveness | 6 | – | – | – | – | – | –
– | Nc1nc(N)c2nc(-c3ccccc3)c(N)nc2n1 [TA, triamterene] | – | – | – | – | narrow range of almost linear dose-responsiveness | – | less K^+ loss than HCT or TORA only for the 0-3 hrs period; also recorded: not superior to the loop diuretic | 50 | – | – | – | –
– | NS(=O)(=O)c1cc2c(cc1Cl)NCNS2(=O)=O [HCT, hydrochlorothiazide] | – | higher Na^+ excretion than TA only during the first 3 hrs | – | – | narrow range of almost linear dose-responsiveness | 12 | higher than that following administration of the loop diuretic | 25 | 0.40 | 0.43 | nearly triple of that of the loop diuretic | not significantly different
